Laboratory results as given in patent US20200163984A1, “USE OF ISOVALERYL SPIRAMYCIN I, II AND/OR III IN MANUFACTURING MEDICAMENT FOR TREATING AND/OR PREVENTING TUMOR, AND MEDICAMENT” (SHENYANG FUYANG PHARMACEUTICAL TECHNOLOGY CO., LTD., priority 2017, published 2020).

Columns and labels:
[1] = test system: transplanted tumor of HT-29 cells; experiment: HT-29 transplanted tumor in nude mice; conditions: for Inhibition Rate (%) / Tumor Weight: HT-29 nude mice; for Tumor Volume (mm3) (d30): d 30
Protocol: (§1) Then cell concentration was adjusted to 1×10^7/ml with matrigel, then each nude mouse was inoculated subcutaneously with 0.2 ml of cells at its right armpit and recorded as the first day of inoculation. When the tumor grows to be greater than or equal to 100 mm^3, the mice were randomly divided into 11 groups with 6 mice in each group: isovaleryl spiramycin I groups with doses of 25, 50 and 100 mg/kg, isovaleryl spiramycin II groups with doses of 25, 50 and 100 mg/kg, and isovaleryl spiramycin III groups with doses of 25, 50 and 100 mg/kg. Each group was continuously administered intragastrically for 30 days with a dose of 20 ml/kg. The mice were sacrificed the next day after drug withdrawal and the indicators were tested. The long diameter and short diameter of the tumor, and the body weight of each mouse were recorded every 3 days from drug administration to nude mouse sacrifice.
(§2) The body weight of the nude mice and the long diameter (a) and short diameter (b) of the transplanted tumor were measured every 3 days, and the tumor volume (v), relative tumor volume (RTV) and relative tumor proliferation rate (T/C) are calculated respectively according to the following formulas, wherein V=a×b^2/2; RTV=V/V0 (V0 is the tumor volume before administration, V is the tumor volume before sacrifice), and T/C (%)=treatment group RTV/model control group RTV×100%.
(§3) Each mouse was weighed and sacrificed. After the tumor was completely stripped off from the body of the mouse, the non-tumor tissues such as blood stains and fat were removed to weigh the tumor and calculate the tumor growth inhibition rate. The average tumor weight of each group of mice is used as an indicator of efficacy. Tumor growth inhibition rate (%)=(1−the average tumor weight of the treatment group/the average tumor weight of the model group)×100%.

[2] = test system: transplanted tumor of human lymphoma cell U937; experiment: U937 transplanted tumor in nude mice; conditions: for Tumor Volume (mm3) (d 1): d1
Protocol: as §1, with “U937 cells in a logarithmic growth phase were taken and subjected to a trypan blue exclusion experiment showing that the cell viability was more than 95%, then the cells were subjected to trypsinization, centrifugation, and supernatant removal. Then” for “Then”, “group: a model group, a cyclophosphamide group,” for “group:”
as §2, §3

[3] = test system: transplanted tumor of human cervical cancer cell HeLa; experiment: HeLa transplanted tumor in nude mice; conditions: for Tumor Volume (mm3) (d 1): d1
Protocol: as §1, with “HeLa cells in a logarithmic growth phase were taken and subjected to a trypan blue exclusion experiment showing that the cell viability was more than 95%, then the cells were subjected to trypsinization, centrifugation, and supernatant removal. Then” for “Then”, “group: a model group, a cyclophosphamide group,” for “group:”
as §2, §3

[4] = HT-29, high dose (100 mg/kg in method) i.g. 30 days
[5] = HT-29, low dose (25 mg/kg in method) i.g. 30 days
[6] = HT-29, medium dose (50 mg/kg in method) i.g. 30 days
[7] = U937, high dose (100 mg/kg in method) i.g. 30 days
[8] = U937, low dose (25 mg/kg in method) i.g. 30 days
[9] = U937, medium dose (50 mg/kg in method) i.g. 30 days
[10] = HeLa, high dose (100 mg/kg in method) i.g. 30 days
[11] = HeLa, low dose (25 mg/kg in method) i.g. 30 days
[12] = HeLa, medium dose (50 mg/kg in method) i.g. 30 days

COC1C(OC(C)=O)CC(=O)OC(C)CC=CC=CC(OC2CCC(N(C)C)C(C)O2)C(C)CC(CC=O)C1OC1OC(C)C(OC2CC(C)(O)C(OC(=O)CC(C)C)C(C)O2)C(N(C)C)C1O (stereo not drawn) [Isovaleryl spiramycin II, isovaleryl spiramycin II]
Relative Tumor Proliferation Rate (T/C) [1, 4]: 44.05%
tumor growth inhibition rate [1, 4]: 55.74%
Relative Tumor Proliferation Rate (T/C) [1, 5]: 84.18%
tumor growth inhibition rate [1, 5]: 16.24%
tumor volume and relative tumor volume compared with the model group ([1]; HT-29, low, medium and high doses, P<0.05): significantly lower
Relative Tumor Proliferation Rate (T/C) [1, 6]: 79.34%
tumor growth inhibition rate [1, 6]: 32.41%
Inhibition Rate (%) ([1]; 25 mg/kg): 16.24%
Tumor Weight ([1]; 25 mg/kg): 1.97 ± 0.34 g
Inhibition Rate (%) ([1]; 50 mg/kg): 32.41%
Tumor Weight ([1]; 50 mg/kg): 1.59 ± 0.49 g
Inhibition Rate (%) ([1]; 100 mg/kg): 55.74%
Tumor Weight ([1]; 100 mg/kg): 1.04 ± 0.40 g
Relative Tumor Proliferation Rate (T/C) ([1]; dose 25 mg/kg): 84.18%
Relative Tumor Volume (RTV) ([1]; dose 25 mg/kg): 12.13 ± 3.40
Tumor Volume (mm3) (d 1) ([1]; dose 25 mg/kg): 163.26 ± 38.80 mm3
Tumor Volume (mm3) (d30) ([1]; dose 25 mg/kg): 1885.85 ± 219.49 mm3
Relative Tumor Proliferation Rate (T/C) ([1]; dose 50 mg/kg): 79.34%
Relative Tumor Volume (RTV) ([1]; dose 50 mg/kg): 11.43 ± 5.13
Tumor Volume (mm3) (d 1) ([1]; dose 50 mg/kg): 142.56 ± 22.44 mm3
Tumor Volume (mm3) (d30) ([1]; dose 50 mg/kg): 1568.80 ± 603.77 mm3
Relative Tumor Proliferation Rate (T/C) ([1]; dose 100 mg/kg): 44.05%
Relative Tumor Volume (RTV) ([1]; dose 100 mg/kg): 6.35 ± 2.87
Tumor Volume (mm3) (d 1) ([1]; dose 100 mg/kg): 156.45 ± 37.20 mm3
Tumor Volume (mm3) (d30) ([1]; dose 100 mg/kg): 921.49 ± 299.38 mm3
mouse weight compared with the model group ([1]; mouse, in vivo): no significant changes
Body Weight (g) (d1) ([1]; mouse, in vivo, 25 mg/kg): 21.04 ± 1.28 g
Body Weight (g) (d30) ([1]; mouse, in vivo, 25 mg/kg): 20.88 ± 1.29 g
Body Weight (g) (d1) ([1]; mouse, in vivo, 50 mg/kg): 21.36 ± 1.35 g
Body Weight (g) (d30) ([1]; mouse, in vivo, 50 mg/kg): 20.9 ± 1.29 g
Body Weight (g) (d1) ([1]; mouse, in vivo, 100 mg/kg): 20.80 ± 0.89 g
Body Weight (g) (d30) ([1]; mouse, in vivo, 100 mg/kg): 21.53 ± 1.08 g
Relative Tumor Proliferation Rate (T/C) [2, 7]: 46.09%
tumor growth inhibition rate [2, 7]: 43.63%
Relative Tumor Proliferation Rate (T/C) [2, 8]: 74.19%
tumor growth inhibition rate [2, 8]: 25.61%
tumor volume and relative tumor volume compared with the model group ([2]; U937, low, medium and high doses, P<0.05): significantly lower
Relative Tumor Proliferation Rate (T/C) [2, 9]: 52.10%
tumor growth inhibition rate [2, 9]: 35.44%
Inhibition Rate (%) ([2]; U937 nude mice, 12.5 mg/kg): 25.61%
Relative Tumor Proliferation Rate (T/C) ([2]; U937 nude mice, 12.5 mg/kg): 74.19%
Relative Tumor Volume (RTV) ([2]; U937 nude mice, 12.5 mg/kg): 12.64 ± 5.00
Tumor Weight ([2]; U937 nude mice, 12.5 mg/kg): 1.44 ± 0.64 g
Tumor Volume (mm3) (d 1) ([2]; U937 nude mice, 12.5 mg/kg): 111.58 ± 23.26 mm3
Tumor Volume (mm3) (d30) ([2]; U937 nude mice, 12.5 mg/kg): 1400.95 ± 558.82 mm3
Inhibition Rate (%) ([2]; U937 nude mice, 25 mg/kg): 35.44%
Relative Tumor Proliferation Rate (T/C) ([2]; U937 nude mice, 25 mg/kg): 52.10%
Relative Tumor Volume (RTV) ([2]; U937 nude mice, 25 mg/kg): 8.88 ± 2.64
Tumor Weight ([2]; U937 nude mice, 25 mg/kg): 1.25 ± 0.66 g
Tumor Volume (mm3) (d 1) ([2]; U937 nude mice, 25 mg/kg): 120.21 ± 24.68 mm3
Tumor Volume (mm3) (d30) ([2]; U937 nude mice, 25 mg/kg): 1117.59 ± 565.29 mm3
Inhibition Rate (%) ([2]; U937 nude mice, 50 mg/kg): 43.63%
Relative Tumor Proliferation Rate (T/C) ([2]; U937 nude mice, 50 mg/kg): 46.09%
Relative Tumor Volume (RTV) ([2]; U937 nude mice, 50 mg/kg): 7.85 ± 3.27
Tumor Weight ([2]; U937 nude mice, 50 mg/kg): 1.09 ± 0.62 g
Tumor Volume (mm3) (d 1) ([2]; U937 nude mice, 50 mg/kg): 111.50 ± 7.03 mm3
Tumor Volume (mm3) (d30) ([2]; U937 nude mice, 50 mg/kg): 885.75 ± 418.53 mm3
mouse weight compared with the model group ([2]; mouse, in vivo): no significant changes
Body Weight (g) (d1) ([2]; mouse, in vivo, 12.5 mg/kg): 21.10 ± 0.64 g
Body Weight (g) (d30) ([2]; mouse, in vivo, 12.5 mg/kg): 20.97 ± 0.74 g
Body Weight (g) (d1) ([2]; mouse, in vivo, 25 mg/kg): 21.05 ± 0.30 g
Body Weight (g) (d30) ([2]; mouse, in vivo, 25 mg/kg): 21.03 ± 0.632 g
Body Weight (g) (d1) ([2]; mouse, in vivo, 50 mg/kg): 20.80 ± 0.51 g
Body Weight (g) (d30) ([2]; mouse, in vivo, 50 mg/kg): 21.22 ± 0.51 g
Inhibition Rate (%) ([3]; HeLa nude mice, 12.5 mg/kg): 30.67%
Relative Tumor Proliferation Rate (T/C) ([3]; HeLa nude mice, 12.5 mg/kg): 68.55%
Relative Tumor Volume (RTV) ([3]; HeLa nude mice, 12.5 mg/kg): 11.36 ± 2.90
Tumor Weight ([3]; HeLa nude mice, 12.5 mg/kg): 1.34 ± 0.60 g
Tumor Volume (mm3) (d 1) ([3]; HeLa nude mice, 12.5 mg/kg): 115.41 ± 23.27 mm3
Tumor Volume (mm3) (d30) ([3]; HeLa nude mice, 12.5 mg/kg): 1301.28 ± 391.77 mm3
Inhibition Rate (%) ([3]; HeLa nude mice, 25 mg/kg): 42.90%
Relative Tumor Proliferation Rate (T/C) ([3]; HeLa nude mice, 25 mg/kg): 56.07%
Relative Tumor Volume (RTV) ([3]; HeLa nude mice, 25 mg/kg): 9.30 ± 1.74
Tumor Weight ([3]; HeLa nude mice, 25 mg/kg): 1.10 ± 0.62 g
Tumor Volume (mm3) (d 1) ([3]; HeLa nude mice, 25 mg/kg): 125.04 ± 20.71 mm3
Tumor Volume (mm3) (d30) ([3]; HeLa nude mice, 25 mg/kg): 1184.42 ± 369.49 mm3
Inhibition Rate (%) ([3]; HeLa nude mice, 50 mg/kg): 43.30%
Relative Tumor Proliferation Rate (T/C) ([3]; HeLa nude mice, 50 mg/kg): 45.96%
Relative Tumor Volume (RTV) ([3]; HeLa nude mice, 50 mg/kg): 7.62 ± 0.85
Tumor Weight ([3]; HeLa nude mice, 50 mg/kg): 1.10 ± 0.61 g
Tumor Volume (mm3) (d 1) ([3]; HeLa nude mice, 50 mg/kg): 111.84 ± 4.83 mm3
Tumor Volume (mm3) (d30) ([3]; HeLa nude mice, 50 mg/kg): 851.58 ± 93.66 mm3
Relative Tumor Proliferation Rate (T/C) [3, 10]: 43.30%
tumor growth inhibition rate [3, 10]: 43.30%
Relative Tumor Proliferation Rate (T/C) [3, 11]: 30.67%
tumor growth inhibition rate [3, 11]: 30.67%
tumor volume and relative tumor volume compared with the model group ([3]; HeLa, low, medium and high doses, P<0.05): significantly lower
Relative Tumor Proliferation Rate (T/C) [3, 12]: 42.90%
tumor growth inhibition rate [3, 12]: 42.90%
mouse weight compared with the model group ([3]; mouse, in vivo): no significant changes
Body Weight (g) (d1) ([3]; mouse, in vivo, 12.5 mg/kg): 20.92 ± 0.46 g
Body Weight (g) (d30) ([3]; mouse, in vivo, 12.5 mg/kg): 21.16 ± 0.51 g
Body Weight (g) (d1) ([3]; mouse, in vivo, 25 mg/kg): 20.87 ± 0.34 g
Body Weight (g) (d30) ([3]; mouse, in vivo, 25 mg/kg): 21.25 ± 0.55 g
Body Weight (g) (d1) ([3]; mouse, in vivo, 50 mg/kg): 20.77 ± 0.43 g
Body Weight (g) (d30) ([3]; mouse, in vivo, 50 mg/kg): 21.09 ± 0.36 g
